Laboratory results as given in patent US8952024B2, “Herbicidal pyrimidone derivatives” (E I du Pont de Nemours and Company, priority 2009, dated 2015).

Columns and labels:
Assay type in all cases: in vivo
[1] = test system: barnyardgrass (Echinochloa crus-galli); test: Test A pre-/postemergence plant response
Method in brief: (§1)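 Greenhouse pots of loam/sand received directed preemergence soil sprays or postemergence sprays (plants 2–10 cm, 1–2 leaf stage), compounds formulated in non-phytotoxic solvent with surfactant. Injury was rated visually versus untreated controls after about ten days on a 0 (no effect) to 100 (complete control) scale.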

[2] = test system: corn (Zea mays); test: Test A pre-/postemergence plant response
Method in brief: as §1

[3] = test system: giant foxtail (Setaria faberii); test: Test A pre-/postemergence plant response
Method in brief: as §1

[4] = test system: large crabgrass (Digitaria sanguinalis); test: Test A pre-/postemergence plant response
Method in brief: as §1

[5] = test system: morningglory (Ipomoea spp.); test: Test A pre-/postemergence plant response
Method in brief: as §1

[6] = test system: pigweed (Amaranthus retroflexus); test: Test A pre-/postemergence plant response
Method in brief: as §1

[7] = test system: velvetleaf (Abutilon theophrasti); test: Test A pre-/postemergence plant response
Method in brief: as §1

[8] = test system: wheat (Triticum aestivum); test: Test A pre-/postemergence plant response
Method in brief: as §1

[9] = test system: barnyardgrass (Echinochloa crus-galli); test: Test B flooded paddy test; details: for Plant response rating, Flood, Barnyardgrass: 250 g ai/ha, flooded paddy test, visual rating on 0 to 100 scale (0 no effect, 100 complete control) after 13 to 15 days; for Plant response rating, Barnyardgrass: Flood (flooded paddy test), 13 to 15 days; for Barnyardgrass plant response rating: Flood, 31 g ai/ha, scale 0 to 100 (0 no effect, 100 complete control)
Method in brief: (§2)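 Flooded-pot test: water raised to 3 cm above soil when treating, compound put in the water, level unchanged thereafter. Plants were at 2 leaves. Readout after 13 to 15 days, visual, relative to controls; 0 signifies no effect and 100 complete control.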

[10] = test system: ducksalad (Heteranthera limosa); test: Test B flooded paddy test; details: for Plant response rating, Flood, Ducksalad: 250 g ai/ha, flooded paddy test, visual rating on 0 to 100 scale (0 no effect, 100 complete control) after 13 to 15 days; for Plant response rating, Ducksalad: Flood (flooded paddy test), 13 to 15 days; for Ducksalad plant response rating: Flood, 31 g ai/ha, scale 0 to 100 (0 no effect, 100 complete control)
Method in brief: as §2

[11] = test system: rice (Oryza sativa); test: Test B flooded paddy test; details: for Plant response rating, Flood, Rice: 250 g ai/ha, flooded paddy test, visual rating on 0 to 100 scale (0 no effect, 100 complete control) after 13 to 15 days; for Plant response rating, Rice: Flood (flooded paddy test), 13 to 15 days; for Rice plant response rating: Flood, 31 g ai/ha, scale 0 to 100 (0 no effect, 100 complete control)
Method in brief: as §2

[12] = test system: umbrella sedge (Cyperus difformis); test: Test B flooded paddy test; details: for Plant response rating, Flood, Sedge, Umbrella: 250 g ai/ha, flooded paddy test, visual rating on 0 to 100 scale (0 no effect, 100 complete control) after 13 to 15 days; for Plant response rating, Sedge, Umbrella: Flood (flooded paddy test), 13 to 15 days; for Sedge, Umbrella plant response rating: Flood, 31 g ai/ha, scale 0 to 100 (0 no effect, 100 complete control)
Method in brief: as §2

[13] = Postemergence, 125 g ai/ha, 0 to 100 scale where 0 is no effect and 100 is complete control
[14] = Postemergence, 500 g ai/ha, 0 to 100 scale, 0 = no effect, 100 = complete control, approx. ten days
[15] = Preemergence, 125 g ai/ha, 0 to 100 scale, 0 = no effect, 100 = complete control
[16] = Preemergence, 500 g ai/ha, visual injury, 0 to 100 scale (0 no effect, 100 complete control), approx. ten days
[17] = 62 g ai/ha, scale of 0 to 100 where 0 is no effect and 100 is complete control
[18] = 125 g ai/ha, scale 0 to 100, 0 is no effect, 100 is complete control

Compound: COCCOCCn1c(-c2ccccc2)ncc(C(=O)C2=C(O)CCCC2=O)c1=O [Compound 91]
- Plant response rating, Barnyardgrass [1, 13]: 90
- Plant response rating, Barnyardgrass [1, 14]: 100
- Plant response rating, Barnyardgrass [1, 15]: 60
- Plant response rating, Barnyardgrass [1, 16]: 100
- Plant response rating, Corn [2, 13]: 0
- Plant response rating, Corn [2, 14]: 10
- Plant response rating, Corn [2, 15]: 0
- Plant response rating, Corn [2, 16]: 0
- Plant response rating, Foxtail, Giant [3, 13]: 80
- Plant response rating, Foxtail, Giant [3, 14]: 80
- Plant response rating, Foxtail, Giant [3, 15]: 40
- Plant response rating, Foxtail, Giant [3, 16]: 70
- Plant response rating, Crabgrass, Large [4, 13]: 90
- Plant response rating, Crabgrass, Large [4, 14]: 100
- Plant response rating, Crabgrass, Large [4, 15]: 90
- Plant response rating, Crabgrass, Large [4, 16]: 100
- Plant response rating, Morningglory [5, 13]: 100
- Plant response rating, Morningglory [5, 14]: 100
- Plant response rating, Morningglory [5, 15]: 20
- Plant response rating, Morningglory [5, 16]: 80
- Plant response rating, Pigweed [6, 13]: 100
- Plant response rating, Pigweed [6, 14]: 100
- Plant response rating, Pigweed [6, 15]: 90
- Plant response rating, Pigweed [6, 16]: 90
- Plant response rating, Velvetleaf [7, 13]: 100
- Plant response rating, Velvetleaf [7, 14]: 100
- Plant response rating, Velvetleaf [7, 15]: 100
- Plant response rating, Velvetleaf [7, 16]: 100
- Plant response rating, Wheat [8, 13]: 0
- Plant response rating, Wheat [8, 14]: 50
- Plant response rating, Wheat [8, 15]: 0
- Plant response rating, Wheat [8, 16]: 20
- Plant response rating, Flood, Barnyardgrass [9]: 65
- Plant response rating, Barnyardgrass [9, 17]: 20
- Plant response rating, Barnyardgrass [9, 18]: 60
- Barnyardgrass plant response rating [9]: 15
- Plant response rating, Flood, Ducksalad [10]: 100
- Plant response rating, Ducksalad [10, 17]: 90
- Plant response rating, Ducksalad [10, 18]: 90
- Ducksalad plant response rating [10]: 65
- Plant response rating, Flood, Rice [11]: 15
- Plant response rating, Rice [11, 17]: 15
- Plant response rating, Rice [11, 18]: 15
- Rice plant response rating [11]: 0
- Plant response rating, Flood, Sedge, Umbrella [12]: 100
- Plant response rating, Sedge, Umbrella [12, 17]: 95
- Plant response rating, Sedge, Umbrella [12, 18]: 100
- Sedge, Umbrella plant response rating [12]: 75

Compound: O=C1CCCC(O)=C1C(=O)c1cnc(C2CCCC2)n(-c2ccccc2)c1=O [Compound 92]
- Plant response rating, Barnyardgrass [1, 13]: 80
- Plant response rating, Barnyardgrass [1, 14]: 90
- Plant response rating, Barnyardgrass [1, 15]: 60
- Plant response rating, Barnyardgrass [1, 16]: 100
- Plant response rating, Corn [2, 13]: 0
- Plant response rating, Corn [2, 14]: 20
- Plant response rating, Corn [2, 15]: 0
- Plant response rating, Corn [2, 16]: 0
- Plant response rating, Foxtail, Giant [3, 13]: 80
- Plant response rating, Foxtail, Giant [3, 14]: 90
- Plant response rating, Foxtail, Giant [3, 15]: 70
- Plant response rating, Foxtail, Giant [3, 16]: 80
- Plant response rating, Crabgrass, Large [4, 13]: 90
- Plant response rating, Crabgrass, Large [4, 14]: 90
- Plant response rating, Crabgrass, Large [4, 15]: 90
- Plant response rating, Crabgrass, Large [4, 16]: 100
- Plant response rating, Morningglory [5, 13]: 100
- Plant response rating, Morningglory [5, 14]: 100
- Plant response rating, Morningglory [5, 15]: 0
- Plant response rating, Morningglory [5, 16]: 80
- Plant response rating, Pigweed [6, 13]: 100
- Plant response rating, Pigweed [6, 14]: 100
- Plant response rating, Pigweed [6, 15]: 100
- Plant response rating, Pigweed [6, 16]: 100
- Plant response rating, Velvetleaf [7, 13]: 100
- Plant response rating, Velvetleaf [7, 14]: 100
- Plant response rating, Velvetleaf [7, 15]: 90
- Plant response rating, Velvetleaf [7, 16]: 100
- Plant response rating, Wheat [8, 13]: 0
- Plant response rating, Wheat [8, 14]: 0
- Plant response rating, Wheat [8, 15]: 0
- Plant response rating, Wheat [8, 16]: 0
- Plant response rating, Flood, Barnyardgrass [9]: 45
- Plant response rating, Barnyardgrass [9, 17]: 0
- Plant response rating, Barnyardgrass [9, 18]: 20
- Barnyardgrass plant response rating [9]: 0
- Plant response rating, Flood, Ducksalad [10]: 85
- Plant response rating, Ducksalad [10, 17]: 30
- Plant response rating, Ducksalad [10, 18]: 70
- Ducksalad plant response rating [10]: 20
- Plant response rating, Flood, Rice [11]: 40
- Plant response rating, Rice [11, 17]: 0
- Plant response rating, Rice [11, 18]: 25
- Rice plant response rating [11]: 0
- Plant response rating, Flood, Sedge, Umbrella [12]: 85
- Plant response rating, Sedge, Umbrella [12, 17]: 65
- Plant response rating, Sedge, Umbrella [12, 18]: 70
- Sedge, Umbrella plant response rating [12]: 65
